“Also recorded” adds a separate entry of the source.
Assays:
[1] = system: defense gene expression in excised Arabidopsis leaves; assay: Excised-leaf assay, semi-quantitative RT-PCR of gene expression; assay type: in vivo, Arabidopsis thaliana
Description: Excised-leaf assays. AtPep1 peptide dissolved in double distilled water was supplied to excised leaves of 3 to 4 week old Arabidopsis plants. Leaves were excised and the petioles were immersed in 800 μL centrifuge tubes containing either the peptide solution or distilled water, and placed in a closed clear plexiglass box containing a thin layer of water for humidity, and a small opening to allow air to enter. Boxes were incubated in a growth chamber under the plant growth conditions described above and sprayed with a fine mist of distilled water every half hour to ensure humidity and prevent wilting. To determine variations in basal levels of the AtproPep1 transcript among assays, four different leaves from four different plants were used for each treatment, and leaves supplied with either water or AtPep1 were taken from the same plants. Assays were terminated by immersing the leaves in liquid nitrogen.
Semi-quantitative RT-PCR analysis of relative gene expression levels. RNA was isolated using Trizol reagent and manufacturer's instructions (Invitrogen. Carlsbad Calif.), and 2 μg of RNA template was reverse transcribed with a RETROscript kit (Ambion, Austin Tex.). PCR reactions were carried out with ExTaq Hot Start polymerase and reagents (Fisher Scientific, Pittsburgh Pa.). The AtproPep1 forward and reverse primers with the respective sequences of 5′ […] 3′ (SEQ ID NO: 59) and 5′ […] 3′ (SEQ ID NO: 60) generated a 310 bp intron-spanning product. Primers to β-tubulin (At5g62690) of 5′ […] 3′ (SEQ ID NO: 73) and 5′ […] 3′ (SEQ ID NO: 74) generated a 681 base pair intron-spanning product. An initial denaturing/polymerase activating step of 5 minutes at 94° C. was followed by 31 repetitions of the following three steps: a thirty second denaturation phase at 94° C., a thirty second annealing period at 55.5° C., and a one minute elongation step at 72° C. The amplification program was terminated with a 10 minute final 72° C. elongation phase.
The products of each reaction were separated by electrophoresis and were visualized on a Bio Imaging System (SynGene, Frederick Md.) using GeneSnap version 6.00.26 software (SynGene, Frederick Md.). A high resolution image of the gel was analyzed using GeneTools analysis software version 3.02.00 (SynGene, Frederick Md.). Relative band intensities for each band were normalized to the β-tubulin band. A numerical ratio of amplified AtproPep1 cDNA to amplified tubulin cDNA was obtained for every sample. To calculate average values, semi-quantitative RT-PCR assays were performed in duplicate, and RNA extractions were performed in triplicate.
Analysis of gene expression using RT-PCR. Gene expression was analyzed using RT-PCR (Nishimura et al., Plant Cell 16:1365-1377, 2004).
Expression analysis of AtproPep1 in response to abiotic and biotic cues. As a first step in seeking a possible function for AtproPep1 and its encoded peptide, the basal expression level of the gene was assessed in leaves, stems, roots and flowers of Arabidopsis plants was studied using semi-quantitative RT-PCR analysis of AtproPep1 gene expression in response to treatment of leaves with MeJA, ethephon, MeSA, and AtPep1. The relative abundance of the proAtPep1 transcript was estimated from the expression of the β-tubulin gene as a control. Leaves were wounded by crushing once across the mid-vein with a hemostat. Plants were sprayed with a 250 μM solution of MeJA in 0.1% Triton X-100; with a 2 μM solution of MeSA in 0.1% Triton X-100 or with a 7 mM solution of ethephon in 0.1% Triton X-100. AtPep1 peptide (10 nM in water) was supplied through cut petioles of excised leaves. Total RNA was extracted and analyzed.
In order to determine whether AtPep1 regulates defense gene expression, we determined the fold induction of defense related genes in excised Arabidopsis leaves in response to 10 nM AtPep1 supplied through their cut petioles. […]

[2] = system: P. syringae pv. tomato DC3000 (Pst DC3000); assay: Pst DC3000 inoculation of Arabidopsis leaves with peptide pre-infiltration; assay type: in vivo, Pseudomonas syringae
Description: The resistance to P. irregulare requires the JA signaling pathway in Arabidopsis (Staswick et al, Plant J. 15: 747-754, 1998), and AtPep peptides induced PDF1.2, a marker gene for the JA response (Huffaker et al., Proc. Natl. Acad. Sci. USA 103: 10098-10103, Huffaker and Ryan, Proc. Natl. Acad. Sci. USA 104: 10732-10736, 2007). […] In order to examine this possibility, Arabidopsis plants were inoculated with P. syringae pv. tomato DC3000 (Pst DC3000) with or without AtPep1 pre-infiltration. Pst DC3000 was extracted from the infected leaves 4 days after infection and colony forming units (cfu/cm^2) were calculated. […] The reduction of Pst DC3000 growth was also not observed when the double mutant, pepr1-1/pepr2-1, was pre-infiltrated with AtPep1. […] Pre-infiltration of AtPep2-6 also attenuated Pst DC3000 growth to different degrees.
To assess the importance of AtPEPR1 and AtPEPR2 in the resistance to Pst DC3000 after infiltration of AtPep1, T-DNA insertional mutants were inoculated. When 1 μM AtPep1 was infiltrated into leaves one day prior to Pst DC3000 inoculation, the size of the necrotic regions were reduced in both wild type and single mutant lines, pepr1-1 and pepr2-1. […] Similar results were obtained when another set of mutant lines, pepr1-2, pepr2-2 and pepr1-2/pepr2-2, was used.

[3] = system: AtPEPR1 and AtPEPR2 transcripts; assay: Expression analysis of AtPEPR1 and AtPEPR2 (Northern hybridization, quantitative RT-PCR); assay type: in vivo, Arabidopsis thaliana; conditions: within 30 min
Description: Expression analysis of AtPEPR1 and AtPEPR2. […] In order to elucidate the role of AtPEPR2 in AtPeps signal transduction, the gene expression patterns were analyzed in comparison with AtPEPR1.

[4] = system: wild type tobacco suspension-cultured cells; assay: Medium alkalinization of wild type and GUS expressing tobacco cells; assay type: cell-based; conditions: wild type tobacco (b358 also GUS expressing) cells
[5] = 1 μM one day prior, pepr1-1/pepr2-1

H-ATKVKAKQRGKEKVSSGRPGQHN-OH [AtPep1]
expression of the AtproPep1 gene ([1]; 10 nM through cut petioles of excised leaves, within two hours): induced expression | expression of PDF1.2 and PR-1 ([1]; 10 nM through cut petioles, 2 hr, wild type): most strongly expressed; also recorded: induced a strong expression | expression of AtproPep1, PDF1.2 or PR-1 in mutants ([1]; 10 nM, 2 hr, triple mutant fad3-2, fad7-2, fad8 and mutant ein2-1): did not induce | expression of LOX2 and VSP2 ([1]; 10 nM, two hours, wild type): not induced | expression of PR-3, PR-4 and TAT ([1]; 10 nM, two hours, wild type): expressed at lower levels | expression of At5g64905, At5g64900, At5g64890 and At5g09980 ([1]; supplied through cut petioles of excised leaves): expressed relatively strongly | bacterial growth reduced to ([2]; 1 μM infiltrated one day prior to inoculation, wild type): 1/100 | bacterial growth reduced to ([2]; 1 μM one day prior, pepr1-1): 1/25 | colony growth in the double mutants [2, 5]: no decrease in colony growth | symptom development in double mutants [2, 5]: did not affect symptom development | bacterial growth reduced to ([2]; 1 μM one day prior, pepr2-1): 1/100 | size of the necrotic regions ([2]; 1 μM one day prior, wild type and single mutants pepr1-1 and pepr2-1): reduced | Pst DC3000 growth in double mutant pepr1-1/pepr2-1 ([2]; pre-infiltration): not observed | attenuation of Pst DC3000 in fad3,7,8, npr1-1 and sid2-2 mutants ([2]; pre-infiltration): differentially diminished | effect on Pst DC3000 growth compared with flg22 pre-infiltration ([2]; pre-infiltration, wild type): more effective than flg22 pre-infiltration | Pst DC3000 growth in leaves after pre-infiltration ([2]; wild type, cfu/cm^2 4 days after infection, AtPep1 10 nM solution): reduced Pst DC3000 growth in leaves | induction of AtPEPR1 and AtPEPR2 transcripts [3]: strong inducer | alkalinization of the medium [4]: no alkalinization was detected; also recorded: did not respond

— patent US8686224B2, “Plant defense signal peptides” (priority 2005, dated 2014)
